Read-outs that look alike come from different tables or passages of the source.

The subject of one data set is Karpas422 cells. As to the kind of experiment: Cell proliferation assay, Karpas422. In kind it is cell-based. The settings on record: Homo sapiens. The method, then: (§1) Human B-cell non-Hodgkin's lymphoma cells WSU-DLCL2, Karpas422 and Pfeiffer were cultured in cell culture flasks in a sterile incubator with 95% relative humidity and 5% CO2 at 37° C. The medium was RPMI-1640 (Gibco, product No. 31800022) containing 15% fetal bovine serum (FBS, Gibco, product No. 10099141) and 0.1% penicillin/streptomycin solution (P/S). In order to assay the effects of compounds on cell proliferation, cells in exponential growth phase were seeded into a 12-well plate (Nunc, product No. 150628) with 1 mL of medium per well, wherein WSU-DLCL2 and Karpas422 were seeded at a density of 1×10^5 cells/well, and Pfeiffer was seeded at a density of 2×10^5 cells/well. At the same time, different concentrations of compounds were added to the wells that had seeded with cells (6 concentrations were set for each compound at 3-fold serial dilution), and the final concentration of DMSO was 0.1%. After that, the number of viable cells was determined by Vi-CELL (Beckman Coulter) for WSU-DLCL2 and Pfeiffer every 3 days, and for Karpas422 on days 4, 7, and 11, respectively. The cells counted each time were seeded into a new 12-well plate at the same density, and supplemented with fresh medium to 1 mL. Different concentrations of compounds were added at the same time. WSU-DLCL2 and Pfeiffer were cultured to the 9th day, and Karpas422 was cultured to the 14th day. Cell data were collected uniformly, and analyzed with GraphPad prisim5. Dose curves were fitted, and IC50 values of the assay compounds were obtained.

The test system of another data set is WSU-DLCL2 cells. Put plainly: Cell proliferation assay, WSU-DLCL2. The format is cell-based. As to conditions: Homo sapiens. On the procedure: as §1
The subject of data set [1] is cellular H3K27 methylation. As to the kind of experiment: Cellular H3K27 methylation assay (Western blot of H3K27me3 in HeLa cells). The format is cell-based. As to conditions: Homo sapiens, 72 h, read-out: PD IC50.
A short description of data set [2]: Pharmacokinetic study in rats. The format is in vivo, SD rats. The settings on record: rat; for AUC(0-inf) / Cmax / Tmax / clearance / half-life / MRT inf: male, SD, plasma; for MRT inf: read-out: MRT0-∞. The method, then: Six SPF SD rats, male, weighing 180-220 g, were randomly divided into 2 groups with 3 rats in each group. The compounds of the present disclosure were administered by oral gavage (PO) and intravenous injection (IV), respectively, and the assay compounds were formulated with a vehicle (5% DMSO+10% Solutol+85% pH 4.65 Acetate buffer).
Dosage: 1 mg/kg for intravenous injection and 2 mg/kg for oral administration.
Dosing volume: 5 mL/kg for intravenous injection and 10 mL/kg for oral administration.
The oral administration group was fasted overnight (10-14 h) before the assay, and drank water freely. After 4 hours of administration, they were fed uniformly. They were weighed before administration, and the dosage was calculated according to the body weight.
Intravenous administration: 0.083, 0.25, 0.5, 1, 2, 4, 6, 8, 10 and 24 h after administration;
Oral gavage administration: 0.25, 0.5, 1, 2, 4, 6, 8, 10, 12 and 24 h after administration;
Blood was collected from the jugular vein of rats at the above set time points, about 0.2 mL each time. The blood was anticoagulated with heparin sodium, placed on ice after collection, and centrifuged within 1 hour to separate the plasma (centrifugation conditions: 6800 g, 6 minutes, 2-8° C.). Plasma samples were stored in a −80° C. freezer prior to analysis.
The concentration of each compound in rat plasma was determined by LC/MS/MS method.
Through the plasma drug concentration data at different time points, pharmacokinetic parameters were calculated using Phoenix WinNonlin 7.0, thereby providing parameters such as AUC0-t, AUC0-∞, MRT0-∞, Cmax, Tmax, and T1/2 and mean and standard deviation thereof.

The subject of the next data set is Pfeiffer cells. Put plainly: Cell proliferation assay, Pfeiffer. In kind it is cell-based. As to conditions: Homo sapiens, cultured to the 9th day, read-out: Anti-proliferation IC50. The method, then:
as §1

Where [3] appears, read: WSUDLCL2, WSU-DLCL2 cells, cultured to the 9th day, read-out: Anti-proliferation IC50.
Where [4] appears, read: HeLa cells, 3 days, H3K27me3 level by Western blot.
Where [5] appears, read: KARPAS-422, Karpas422 cells, cultured to the 14th day, read-out: Anti-proliferation IC50.

As for `O=C1CCCN1c1cnc(NCc2c(F)ccc3c2CCO3)n2cnnc12` [HJM-067], the IC50 in the data set on Karpas422 cells (KARPAS-422, read-out: Anti-proliferation IC50) amounted to 51 nM. In the data set with WSU-DLCL2 cells (WSUDLCL2, read-out: Anti-proliferation IC50), the IC50 came out at 29.4 nM. Also, the IC50 in data set [1] (HeLa) is 21.1 nM. Besides, in data set [2] (IV, 1 mg/kg), the AUC(0-inf) was 695 ng·h/mL, the Cmax is 946 ng/mL, the Tmax was determined as 0.08 h and the clearance amounted to 24.1 mL/min/kg. In data set [2] (IV, 1 mg/kg), the half-life is 3 h and the MRT inf was determined as 0.8 h. Also, in data set [2] (PO, 2 mg/kg), the AUC(0-inf) was 846 ng·h/mL, the highest level (Cmax) was 306 ng/mL, the Tmax worked out at 0.83 h and the half-life was 3.03 h. Further, in data set [2] (PO, 2 mg/kg), the MRT inf was found to be 2.7 h and the F is 60.72%.
Take `CC1(COc2cnc(NCc3c(F)ccc4c3CCO4)n3cnnc23)COC1` [HJM-105]: the IC50 in the data set with WSU-DLCL2 cells (setting [3]) was found to be 35.4 nM. The IC50 in data set [1] (setting [4]) is 29.4 nM. Moreover, in data set [2] (IV, 1 mg/kg), the AUC(0-inf) came out at 1910 ng·h/mL, the concentration peaked (Cmax) at 1600 ng/mL, the Tmax worked out at 0.08 h and the clearance was 8.83 mL/min/kg. Also, in data set [2] (IV, 1 mg/kg), the half-life was 1.82 h and the MRT inf turned out to be 1.56 h. Moreover, in data set [2] (PO, 2 mg/kg), the AUC(0-inf) amounted to 1790 ng·h/mL, the Cmax came out at 342 ng/mL, the Tmax worked out at 2.83 h and the half-life is 1.41 h. In data set [2] (PO, 2 mg/kg), the MRT inf came to 3.29 h and the F amounted to 47.22%.
As to `CS(=O)(=O)c1ccc(-c2cnc(NCc3ccco3)n3cnnc23)cc1` [EED226, reference compound], the results for the IC50 (in the data set on Karpas422 cells (setting [5]); in the data set with WSU-DLCL2 cells (setting [3]); in data set [1] (setting [4])) were 123 nM, 131 nM and 220 nM, respectively.
Turning to `CCN(C(=O)C1CC1)c1cnc(NCc2c(F)ccc3c2CCO3)n2cnnc12` [HJM-079], the IC50 with WSU-DLCL2 cells (setting [3]) worked out at 36.8 nM. Also, the IC50 in data set [1] (setting [4]) was 15.3 nM. In data set [2] (IV, 1 mg/kg), the area under the curve AUC(0-inf) came out at 857 ng·h/mL, the Cmax was 750 ng/mL, the Tmax was 0.08 h and the clearance stood at 19.5 mL/min/kg. For the same compound, in data set [2] (IV, 1 mg/kg), the half-life is 0.92 h and the MRT inf was determined as 1.1 h. For the same compound, in data set [2] (PO, 2 mg/kg), the AUC(0-inf) was 706 ng·h/mL, the highest level (Cmax) was 222 ng/mL, the Tmax came out at 0.42 h and the half-life was 1.72 h. In data set [2] (PO, 2 mg/kg), the MRT inf is 2.94 h and the F came out at 40.87%.
In the case of `O=C(Nc1cnc(NCc2c(F)ccc3c2CCO3)n2cnnc12)C1CC1` [HJM-030], the IC50 in the data set on Karpas422 cells (setting [5]) was found to be 42.1 nM. For the same compound, the IC50 with WSU-DLCL2 cells (setting [3]) turned out to be 39.6 nM. The IC50 in data set [1] (setting [4]) came to 26.7 nM. In addition, in data set [2] (IV, 1 mg/kg), the AUC(0-inf) was determined as 1230 ng·h/mL, the Cmax stood at 1500 ng/mL, the Tmax worked out at 0.08 h and the clearance turned out to be 13.6 mL/min/kg. Moreover, in data set [2] (IV, 1 mg/kg), the half-life was 1.7 h and the MRT inf stood at 1.02 h. For the same compound, in data set [2] (PO, 2 mg/kg), the AUC(0-inf) came to 1450 ng·h/mL, the peak level (Cmax) was 394 ng/mL, the Tmax was determined as 0.42 h and the half-life was 1.32 h. Besides, in data set [2] (PO, 2 mg/kg), the MRT inf came out at 2.93 h and the F was determined as 58.53%.
Consider `Fc1ccc2c(c1CNc1ncc(OCC3CCOC3)c3nncn13)CCO2` (centres unmarked) [HJM-102], for which the IC50 in the data set on Karpas422 cells (setting [5]) turned out to be 99.3 nM. The IC50 in the data set with Pfeiffer cells was 47.4 nM. Besides, in the data set on WSU-DLCL2 cells (setting [3]), the IC50 came out at 25.1 nM. For the same compound, the IC50 in data set [1] (setting [4]) is 32.7 nM. Also, in data set [2] (IV, 1 mg/kg), the AUC(0-inf) stood at 1140 ng·h/mL, the Cmax was found to be 1180 ng/mL, the Tmax was found to be 0.08 h and the clearance amounted to 14.8 mL/min/kg. In data set [2] (IV, 1 mg/kg), the half-life is 1.98 h and the MRT inf is 1.4 h. Further, in data set [2] (PO, 2 mg/kg), the AUC(0-inf) stood at 1890 ng·h/mL, the Cmax came out at 369 ng/mL, the Tmax was 1.5 h and the half-life is 1.68 h. In data set [2] (PO, 2 mg/kg), the MRT inf stood at 3.55 h and the F was determined as 82.62%.
